Experimental data: publication PMC6635429, “A 4-cyano-3-methylisoquinoline inhibitor of Plasmodium falciparum growth targets the sodium efflux pump PfATP4” (Scientific Reports, 2019)

What was measured:
Type in all cases: biochemical
PfATP4 [1] = molecular target: T1, PfATP4 (Plasmodium falciparum, UniProt A0A143ZZK9); assay: cipargamin-sensitive Na+-dependent ATPase activity (Pi release) in parasite membranes
T1 construct: gene ATP4; native PfATP4 in P. falciparum membrane preparations (3D7)

PfATP4 [2] = molecular target: T1, PfATP4; assay: cipargamin-sensitive Na+-dependent ATPase activity (Pi release) in parasite membranes; resistance mutation S374R
PfATP4 [3] = molecular target: T2, PfATP4 (Plasmodium falciparum, UniProt A0A143ZZK9, S374R); assay: cipargamin-sensitive Na+-dependent ATPase activity (Pi release) in membranes of resistant parasites
T2 construct: gene ATP4; PfATP4 S374R in membranes from B7 parasites
T2 sequence (A0A143ZZK9 1-1264 S374R): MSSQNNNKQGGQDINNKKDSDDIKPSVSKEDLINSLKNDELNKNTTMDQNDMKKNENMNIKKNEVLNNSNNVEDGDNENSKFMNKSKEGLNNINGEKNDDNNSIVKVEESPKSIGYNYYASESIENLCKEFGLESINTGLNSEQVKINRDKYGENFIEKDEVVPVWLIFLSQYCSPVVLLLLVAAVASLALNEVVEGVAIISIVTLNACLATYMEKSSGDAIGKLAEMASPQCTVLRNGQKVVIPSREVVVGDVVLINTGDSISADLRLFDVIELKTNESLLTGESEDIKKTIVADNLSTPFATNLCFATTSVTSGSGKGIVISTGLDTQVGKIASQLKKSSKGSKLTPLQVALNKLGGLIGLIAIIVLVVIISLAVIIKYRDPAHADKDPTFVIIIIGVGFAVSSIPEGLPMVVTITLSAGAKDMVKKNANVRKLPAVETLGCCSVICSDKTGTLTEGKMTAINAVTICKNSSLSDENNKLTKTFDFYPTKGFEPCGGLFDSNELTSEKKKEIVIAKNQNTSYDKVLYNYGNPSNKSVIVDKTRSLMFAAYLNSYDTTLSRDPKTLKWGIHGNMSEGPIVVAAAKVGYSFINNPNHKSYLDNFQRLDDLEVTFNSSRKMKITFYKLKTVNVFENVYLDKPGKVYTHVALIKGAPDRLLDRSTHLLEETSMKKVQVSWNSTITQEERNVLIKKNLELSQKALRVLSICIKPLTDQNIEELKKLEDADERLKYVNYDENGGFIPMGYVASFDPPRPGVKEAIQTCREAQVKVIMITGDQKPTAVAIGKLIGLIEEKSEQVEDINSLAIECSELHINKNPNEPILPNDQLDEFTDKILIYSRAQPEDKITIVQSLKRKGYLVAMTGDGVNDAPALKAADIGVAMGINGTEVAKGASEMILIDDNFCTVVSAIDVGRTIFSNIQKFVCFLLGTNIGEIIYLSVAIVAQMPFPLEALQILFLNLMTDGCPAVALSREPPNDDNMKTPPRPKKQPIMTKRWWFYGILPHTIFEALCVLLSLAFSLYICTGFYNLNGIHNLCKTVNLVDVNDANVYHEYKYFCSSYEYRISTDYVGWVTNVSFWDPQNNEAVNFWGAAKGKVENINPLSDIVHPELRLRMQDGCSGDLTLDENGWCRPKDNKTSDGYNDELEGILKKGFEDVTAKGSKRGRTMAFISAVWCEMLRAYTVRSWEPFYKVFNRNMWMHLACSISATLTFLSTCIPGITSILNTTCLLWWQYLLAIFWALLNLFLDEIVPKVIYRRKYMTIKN

Cc1nc(N[C@@H](C)c2ccccc2)c2ccccc2c1C#N [MB10]
IC50 (PfATP4 [1]): 62 ± 9 nM

CCC(CC)Nc1nc(C)c(C#N)c2ccccc12 [MB14, 3-methyl-1-(1-ethylpropylamino)isoquinoline-4-carbonitrile]
IC50 (PfATP4 [2]): 52 ± 16 nM | IC50 (PfATP4 [3]): 429 ± 73 nM
